Reference: the supplement of paper PMC11061612

Assays:
Assay in all cases: Bliss excess, mean over the matrix (fraction); higher = more synergy
AM-38 (Glioblastoma) = tested on: AM-38 (Glioblastoma)
How it was run: (§1)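 Bliss excess equals the observed combination effect minus the expected value EA + EB − EA·EB, where EA and EB are the effects of each agent alone. Combination Emax is the second-highest inhibition within the matrix. Inhibition was scaled from CellTiter-Glo 2.0 luminescence, with 0 set by vehicle wells and 1 by blank wells, after 72 hours of two-drug dosing of cells plated in 1536-well plates.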

[1] = tested on: BHT-101 (Thyroid Gland Carcinoma)
How it was run: as §1

[2] = tested on: COR-L88 (Small Cell Lung Carcinoma)
How it was run: as §1

[3] = tested on: DBTRG-05MG (Glioblastoma)
How it was run: as §1

[4] = tested on: HT-1080 (Other Solid Carcinomas)
How it was run: as §1

[5] = tested on: IA-LM (Non-Small Cell Lung Carcinoma)
How it was run: as §1

IST-MEL1 (Melanoma) = tested on: IST-MEL1 (Melanoma)
How it was run: as §1

[6] = tested on: MOLT-13 (T-Lymphoblastic Leukemia)
How it was run: as §1

[7] = tested on: MONO-MAC-6 (Acute Myeloid Leukemia)
How it was run: as §1

[8] = tested on: MS-1 (Small Cell Lung Carcinoma)
How it was run: as §1

[9] = tested on: NCI-H1341 (Small Cell Lung Carcinoma)
How it was run: as §1

NCI-H226 (Mesothelioma) = tested on: NCI-H226 (Mesothelioma)
How it was run: as §1

[10] = tested on: NMC-G1 (Low Grade Glioma)
How it was run: as §1

[11] = tested on: Raji (Burkitt's Lymphoma)
How it was run: as §1

[12] = tested on: SAT (Head and Neck Carcinoma)
How it was run: as §1

SK-N-SH (Neuroblastoma) = tested on: SK-N-SH (Neuroblastoma)
How it was run: as §1

[13] = tested on: SNU-C2B (Colorectal Carcinoma)
How it was run: as §1

[14] = tested on: SiHa (Cervical Carcinoma)
How it was run: as §1

[15] = tested on: T84 (Colorectal Carcinoma)
How it was run: as §1

[16] = tested on: TUR (Acute Myeloid Leukemia)
How it was run: as §1

SMILES	Bliss excess (AM-38 (Glioblastoma))	Bliss excess [1]	Bliss excess [2]	Bliss excess [3]	Bliss excess [4]	Bliss excess [5]	Bliss excess (IST-MEL1 (Melanoma))	Bliss excess [6]	Bliss excess [7]	Bliss excess [8]	Bliss excess [9]	Bliss excess (NCI-H226 (Mesothelioma))	Bliss excess [10]	Bliss excess [11]	Bliss excess [12]	Bliss excess (SK-N-SH (Neuroblastoma))	Bliss excess [13]	Bliss excess [14]	Bliss excess [15]	Bliss excess [16]
Cc1cc2ncnn2cc1Nc1ncc2c(n1)n(C1CCOCC1)c(=O)n2C [AZD7648] + C=CCn1c(=O)c2cnc(Nc3ccc(N4CCN(C)CC4)cc3)nc2n1-c1cccc(C(C)(C)O)n1 [AZD1775] (first compound max 10 µM, partner max 1 µM)	0.0125	0.0005	-0.0543	0.0039	0.0591	-0.0108	-0.011	0.0144	-0.0188	-0.0401	-0.0476	-0.004	0.0106	-0.0359	-0.0065	-0.0069	-0.0404	0.0306	-0.0288	0.019
Cc1cc2ncnn2cc1Nc1ncc2c(n1)n(C1CCOCC1)c(=O)n2C [AZD7648] + CCN(CCO)CCCOc1ccc2c(Nc3cc(CC(=O)Nc4cccc(F)c4)[nH]n3)ncnc2c1 [AZD2811] (first compound max 10 µM, 7x7, partner max 1 µM)	0.0106	-0.0091	0.0077	-0.0028	0.0364	0.0156	0.03	-0.0152	0.0123	0.0104	0.0568	-0.0733	-0.0407	0.0312	-0.0101	0.0001	0.0265	0.0278	0.0161	0.0523
Cc1cc2ncnn2cc1Nc1ncc2c(n1)n(C1CCOCC1)c(=O)n2C [AZD7648] + CN(C)CCCOc1ccc(-c2ccc3ncc4c(c3c2)n(C2CCOCC2)c(=O)n4C)cn1 [AZD0156] (first compound max 10 µM, 7x7, partner max 1 µM)	-0.0139	0.0659	-0.0326	-0.0363	-0.0246	-0.0133	-0.0228	0.0053	-0.0869	0.0245	0.0157	-0.0393	-0.0497	0.0416	0.0062	-0.0046	-0.0251	-0.0074	0.0332	0.0283
Cc1cc2ncnn2cc1Nc1ncc2c(n1)n(C1CCOCC1)c(=O)n2C [AZD7648] + C[C@@H]1COCCN1C2=NC(=NC(=C2)C3(CC3)[S@](=N)(=O)C)C4=C5C=CNC5=NC=C4 [AZD6738] (first compound max 10 µM, 7x7, partner max 10 µM)	-0.0015	0.0197	0.0291	-0.0174	-0.0459	0.0867	-0.0172	-0.0154	-0.0147	-0.0266	-0.0087	0.046	0.0004	0.0011	0.0561	0.0026	-0.0036	0.0466	0.0189	0.0024
Cc1cc2ncnn2cc1Nc1ncc2c(n1)n(C1CCOCC1)c(=O)n2C [AZD7648] + O=C(c1cc(Cc2n[nH]c(=O)c3ccccc23)ccc1F)N1CCN(C(=O)C2CC2)CC1 [Olaparib] (first compound max 10 µM, 7x7, partner max 10 µM)	0.0174	-0.0071	-0.0432	-0.0477	-0.0165	-0.042	-0.0517	0.0242	-0.0146	-0.0087	0.013	-0.0801	-0.0538	0.0011	-0.039	0.0056	-0.0432	-0.0389	-0.0256	0.0054
COc1cccc2c1C(=O)c1c(O)c3c(c(O)c1C2=O)C[C@@](O)(C(=O)CO)C[C@@H]3O[C@H]1C[C@H](N)[C@H](O)[C@H](C)O1 [Doxorubicin] + Cc1cc2ncnn2cc1Nc1ncc2c(n1)n(C1CCOCC1)c(=O)n2C [AZD7648] (first compound max 1 µM, 7x7, partner max 10 µM)	0.114	0.0409	-0.0228	0.0225	0.108	0.0044	0.0511	0.209	0.0935	0.0686	0.0628	0.0068	-0.0029	0.0979	0.0764	0.0605	0.0518	0.0142	-0.0081	0.119
COc1cccc(OCCCN)c1-c1cc(Nc2cnc(C#N)cn2)n[nH]1 [Prexasertib] + C=CCn1c(=O)c2cnc(Nc3ccc(N4CCN(C)CC4)cc3)nc2n1-c1cccc(C(C)(C)O)n1 [AZD1775] (first compound max 1 µM, partner max 1 µM)	0.0907	0.136	0.0538	-0.0008	0.0643	0.0573	0.0406	0.0981	0.168	0.0972	0.13	0.0023	-0.0285	0.0907	-0.0318	0.0025	-0.0336	0.0666	0.144	0.105
COc1cccc(OCCCN)c1-c1cc(Nc2cnc(C#N)cn2)n[nH]1 [Prexasertib] + CCc1c2c(nc3ccc(O)cc13)-c1cc3c(c(=O)n1C2)COC(=O)[C@]3(O)CC [SN-38] (first compound max 1 µM, 7x7, partner max 0.3 µM)	-0.0317	0.0077	-0.0204	-0.0558	-0.0274	-0.0012	-0.0552	-0.0112	0.0092	-0.0051	-0.0174	-0.058	-0.105	-0.0279	-0.007	-0.0778	-0.0388	0.0357	0.0636	0.0107
